Test results taken from ChEMBL document CHEMBL5625215, “Antiproliferative activity of meso-substituted BODIPY photocages: Effect of electrophiles vs singlet oxygen” (Eur J Med Chem, 2023).
Active and inactive are the calls of the source. The calls are words filed in the database; no cut-off is given here.

What was measured:
[1] = Induction of singlet oxygen production in CH3CN assessed as decrease in fluorescence intensity at 450 nm under photoirradiation with visible light and measured after 15 sec by DPBF based assay relative to control; type: functional; set-up: scale not given: the % may be the effect or the level left
[2] = Induction of singlet oxygen production in CH3CN assessed as decrease in fluorescence intensity at 450 nm under photoirradiation with visible light and measured after 30 sec by DPBF based assay relative to control; type: functional; set-up: scale not given: the % may be the effect or the level left
[3] = Induction of singlet oxygen production in CH3CN assessed as decrease in fluorescence intensity at 450 nm under photoirradiation with visible light and measured after 45 sec by DPBF based assay relative to control; type: functional; set-up: scale not given: the % may be the effect or the level left
[4] = Induction of singlet oxygen production in CH3CN assessed as decrease in fluorescence intensity at 450 nm under photoirradiation with visible light and measured after 1 min by DPBF based assay relative to control; type: functional; set-up: scale not given: the % may be the effect or the level left
[5] = Induction of singlet oxygen production in CH3CN assessed as singlet oxygen quantum yield at 450 nm under photoirradiation with visible light and measured after 15 to 60 sec by DPBF based assay; type: functional; conditions: time 15-60 sec
[6] = test system: MCF7; test: Antiproliferative activity against human MCF7 cells assessed as inhibition of cell growth incubated for 72 hrs under dark condition by MTT assay; type: functional, cell-based; conditions: MCF7, 72 h
[7] = test system: MCF7; test: Antiproliferative activity against human MCF7 cells assessed as inhibition of cell growth incubated for 72 hrs under photoirradiation with 6 cool white lamps for 15 mins at 4,28 and 52 hrs after compound addition by MTT assay; type: functional, cell-based; conditions: MCF7, light or radiation study
[8] = test system: NCI-H460; test: Antiproliferative activity against human NCI-H460 cells assessed as inhibition of cell growth incubated for 72 hrs under dark condition by MTT assay; type: functional, cell-based; conditions: NCI-H460, 72 h
[9] = test system: NCI-H460; test: Antiproliferative activity against human NCI-H460 cells assessed as inhibition of cell growth incubated for 72 hrs under photoirradiation with 6 cool white lamps for 15 mins at 4,28 and 52 hrs after compound addition by MTT assay; type: functional, cell-based; conditions: NCI-H460, light or radiation study
[10] = test system: HCT-116; test: Antiproliferative activity against human HCT-116 cells assessed as inhibition of cell growth incubated for 72 hrs under dark condition by MTT assay; type: functional, cell-based; conditions: HCT-116, 72 h
[11] = test system: HCT-116; test: Antiproliferative activity against human HCT-116 cells assessed as inhibition of cell growth incubated for 72 hrs under photoirradiation with 6 cool white lamps for 15 mins at 4,28 and 52 hrs after compound addition by MTT assay; type: functional, cell-based; conditions: HCT-116, light or radiation study
[12] = Cytotoxicity against HEK293T cells assessed as inhibition of cell growth incubated for 72 hrs under dark condition by MTT assay; type: toxicity, cell-based, HEK-293T; conditions: human
[13] = Cytotoxicity against HEK293T cells assessed as inhibition of cell growth incubated for 72 hrs under photoirradiation with 6 cool white lamps for 15 mins at 4,28 and 52 hrs after compound addition by MTT assay; type: toxicity, cell-based, HEK-293T; conditions: human
[14] = Cytotoxicity against human HaCaT cells assessed as inhibition of cell growth incubated for 72 hrs under dark condition by MTT assay; type: toxicity, cell-based
[15] = Cytotoxicity against human HaCaT cells assessed as inhibition of cell growth incubated for 72 hrs under photoirradiation with 6 cool white lamps for 15 mins at 4,28 and 52 hrs after compound addition by MTT assay; type: toxicity, cell-based
[16] = test system: HCT-116; test: Induction of ROS generation in human HCT-116 cells at 5 uM incubated for 1 hrs under dark condition by DCFH-DA staining based fluorescence analysis; type: functional, cell-based
[17] = test system: HCT-116; test: Induction of ROS generation in human HCT-116 cells assessed as increase in oxidative stress at 5 uM preincubated with compound for 1 hrs followed by photoirradiation with 6 cool white lamps by DCFH-DA staining based fluorescence analysis; type: functional, cell-based
[18] = Absorption property of compound in CH3CN assessed as maximal wavelength by UV-vis spectrophotometer; type: physicochemical
[19] = Emission property of compound in CH3CN assessed as maximal wavelength by […]; type: physicochemical
[20] = Absorption property of compound in CH3CN assessed as maximal molar absorption coefficient by UV-vis spectrophotometer; type: physicochemical
[21] = Fluorescence property of compound in CH3CN assessed as fluorescence quantum yield by spectrofluorometric analysis; type: physicochemical

SMILES	IC50 [6]	IC50 [7]	IC50 [8]	IC50 [9]	IC50 [10]	IC50 [11]	Activity [18]	Activity [19]	Activity [20]	Activity [21]	also measured
COc1cccc(COC(C)=O)c1OCC1=C2C(C)=CC(C)=[N+]2[B-](C)(C)n2c(C)cc(C)c21	47 µM	0.2 µM	≥ 100 µM	0.26 µM	≥ 100 µM	0.34 µM	510 nm	522 nm	75178 M⁻¹ cm⁻¹	0.27	Activity [1]: 1%; Activity [2]: 6.9%; Activity [3]: 14.9%; Activity [4]: 20.2%; Activity [5]: 0.1; IC50 at 72 h [12]: ≥ 100 µM; IC50 at 72 h [13]: 1.3 µM; IC50 at 72 h [14]: > 100 µM; IC50 at 72 h [15]: 0.6 µM; Activity [16]: inactive; Activity [17]: Active
CC(=O)OCC1=C2C(C)=CC(C)=[N+]2[B-](F)(F)n2c(C)cc(C)c21	–	–	–	–	–	–	517 nm	528 nm	99848 M⁻¹ cm⁻¹	0.99	–
COc1cccc(CO)c1OCC1=C2C(C)=C(Br)C(C)=[N+]2[B-](C)(C)n2c(C)c(Br)c(C)c21	11 µM	0.15 µM	19 µM	0.18 µM	14 µM	0.192 µM	530 nm	555 nm	54912 M⁻¹ cm⁻¹	0.04	–
COc1cccc(COC(C)=O)c1OCC1=C2C(C)=C(Br)C(C)=[N+]2[B-](C)(OC)n2c(C)c(Br)c(C)c21 (stereo not given)	15 µM	2 µM	48 µM	16 µM	24 µM	6 µM	–	–	–	–	–
CC1=CC(C)=[N+]2C1=C(COc1ccccc1CO)c1c(C)cc(C)n1[B-]2(C)C	14 µM	0.2 µM	16.1 µM	0.13 µM	13 µM	0.15 µM	510 nm	527 nm	87209 M⁻¹ cm⁻¹	0.33	Activity [1]: 1.1%; Activity [2]: 8.8%; Activity [3]: 18.9%; Activity [4]: 26.9%; Activity [5]: 0.1; Activity [16]: inactive; Activity [17]: Active
CC(=O)OCc1ccccc1OCC1=C2C(C)=C(I)C(C)=[N+]2[B-](C)(C)n2c(C)c(I)c(C)c21	63 µM	0.17 µM	≥ 100 µM	0.25 µM	≥ 100 µM	0.18 µM	537 nm	565 nm	37520 M⁻¹ cm⁻¹	0.005	–
CC1=CC(C)=[N+]2C1=C(C=O)c1c(C)cc(C)n1[B-]2(C)C	20 µM	15 µM	> 100 µM	61 µM	49 µM	40 µM	–	–	–	–	–
CC1=C(I)C(C)=[N+]2C1=C(COc1ccccc1CO)c1c(C)c(I)c(C)n1[B-]2(C)C	27 µM	0.13 µM	53 µM	0.18 µM	37 µM	0.13 µM	537 nm	560 nm	41143 M⁻¹ cm⁻¹	0.005	–
COc1cccc(CO)c1OCC1=C2C(C)=C(I)C(C)=[N+]2[B-](C)(C)n2c(C)c(I)c(C)c21	12 µM	0.1 µM	31 µM	0.15 µM	13 µM	0.15 µM	535 nm	560 nm	65694 M⁻¹ cm⁻¹	0.012	–
CO[B-]1(C)n2c(C)cc(C)c2C(COc2ccccc2COC(C)=O)=C2C(C)=CC(C)=[N+]21 (stereo not given)	13 µM	1.18 µM	20 µM	2 µM	17 µM	2.3 µM	–	–	–	–	–
CC(=O)OCc1ccccc1OCC1=C2C(C)=CC(C)=[N+]2[B-](C)(C)n2c(C)cc(C)c21	27 µM	0.2 µM	83 µM	0.19 µM	33 µM	0.21 µM	510 nm	521 nm	146706 M⁻¹ cm⁻¹	0.28	Activity [1]: 4.9%; Activity [2]: 12.9%; Activity [3]: 21.1%; Activity [4]: 32.3%; Activity [5]: 0.1; Activity [16]: inactive; Activity [17]: Active
COc1cccc(CO)c1OCC1=C2C(C)=CC(C)=[N+]2[B-](C)(C)n2c(C)cc(C)c21	15 µM	0.2 µM	16 µM	0.24 µM	12 µM	0.38 µM	510 nm	521 nm	109069 M⁻¹ cm⁻¹	0.33	Activity [16]: inactive; Activity [17]: Active
CO[B-]1(C)n2c(C)c(I)c(C)c2C(COc2ccccc2COC(C)=O)=C2C(C)=C(I)C(C)=[N+]21 (stereo not given)	27 µM	0.7 µM	> 100 µM	1.3 µM	> 100 µM	1.7 µM	–	–	–	–	–
CO[B-]1(C)n2c(C)c(I)c(C)c2C(COc2ccccc2CO)=C2C(C)=C(I)C(C)=[N+]21 (stereo not given)	8 µM	8 µM	34 µM	≤ 50 µM	42 µM	30 µM	–	–	–	–	–
CC1=C(Br)C(C)=[N+]2C1=C(COc1ccccc1CO)c1c(C)c(Br)c(C)n1[B-]2(C)C	17 µM	0.23 µM	69 µM	0.6 µM	26 µM	0.4 µM	531 nm	557 nm	42810 M⁻¹ cm⁻¹	0.04	–
CO[B-]1(C)n2c(C)c(Br)c(C)c2C(COc2ccccc2CO)=C2C(C)=C(Br)C(C)=[N+]21 (stereo not given)	27 µM	6 µM	> 100 µM	17 µM	> 100 µM	14 µM	–	–	–	–	–
COc1cccc(COC(C)=O)c1OCC1=C2C(C)=C(I)C(C)=[N+]2[B-](C)(C)n2c(C)c(I)c(C)c21	> 100 µM	0.13 µM	> 100 µM	0.22 µM	> 100 µM	0.176 µM	535 nm	545 nm	58719 M⁻¹ cm⁻¹	0.017	Activity [1]: 84.9%; Activity [2]: 98.8%; Activity [3]: 100%; Activity [5]: 0.78; IC50 at 72 h [12]: > 100 µM; IC50 at 72 h [13]: 0.2 µM; IC50 at 72 h [14]: > 100 µM; IC50 at 72 h [15]: 0.2 µM
